Numbers after ± are expanded uncertainties.
Assays:
[1] = refractive index (Na D-line) (dimensionless); conditions: 293.1 K; 101.33 kPa; Liquid; Standard Abbe refractometry
[2] = Liquid; for mass density: 101.33 kPa; for Normal boiling temperature: Fischer boiling-point apparatus

CCCC#N [butanenitrile] showed a refractive index [1] of 1.384 ± 0.0011, a mass density ([2]; 293.1 K) of 793.7 ± 1.1 kg/m3 and a Normal boiling temperature [2] of 117.40 ± 0.2 °C.
In the case of CC(=O)CC(C)C [4-methylpentan-2-one], the refractive index [1] is reported as 1.3959 ± 0.0011, the mass density ([2]; 298.1 K) is reported as 796.2 ± 1.1 kg/m3 and the Normal boiling temperature [2] is reported as 116.30 ± 0.2 °C.
Molecule CCC(=O)O [propanoic acid] has a refractive index [1] of 1.3811 ± 0.0011, a mass density ([2]; 298.1 K) of 988 ± 0.5 kg/m3 and a Normal boiling temperature [2] of 140.90 ± 0.2 °C.
With CC(=O)OCc1ccccc1 [benzyl ethanoate] the refractive index [1] was 1.5235 ± 0.0011, the mass density ([2]; 293.1 K) was 1055.2 ± 0.9 kg/m3 and the Normal boiling temperature [2] was 213.10 ± 0.2 °C.
In the case of CC(=O)O [acetic acid], the refractive index [1] is reported as 1.3721 ± 0.0011, the mass density ([2]; 298.1 K) is reported as 1044.3 ± 0.5 kg/m3 and the Normal boiling temperature [2] is reported as 117.70 ± 0.2 °C.

From the NIST ThermoML archive (doi:10.1021/je050527x)
